Experimental data as given in US20050282745A1, “Non-mammalian GnRH analogs and uses thereof in regulation of fertility and pregnancy” (priority 2001, published 2005).
Non-standard residues stand in square brackets, D forms with d. Residues, ends and D or L forms follow the SMILES beside them. pGlu = O=C1CC[C@@H](C(=O)O)N1; azaGly = NNC(=O)O

Tests used:
[1] = system: rhesus monkey; test: Contraceptive activity in mated rhesus monkeys, osmotic mini-pump; type: in vivo
From the text: In these studies we examined the effect of a stable analog of chicken II GnRH on ovarian steroidogenesis, implantation and maintainence of pregnancy in the rhesus monkey. We administered this chicken II GnRH analog (SEQ ID NO: 2) or saline via osmotic mini-pumps from Day 1-6, Day 6-11 or Day 11-17 to regularly cycling monkeys mated with fertile males around the time of ovulation. Circulating estradiol (E2) and progesterone (P) in the luteal phase was observed as well as cycle length in this and subsequent cycle. Implantation and pregnancy were confirmed by circulating CG and continued progesterone production. […] In animals treated on day 6-11 or days 11-17, no effect on luteinization or cycle length was noted; and two of five (40.0%), and one of three animals (33.3%), respectively, implanted with normal pregnancies resulting.

[2] = system: human placental GnRH receptor; test: Placental GnRH receptor binding, 125I-Buserelin label; settings: Buserelin label
Method: The newly synthesized non-mammalian GnRH analogs and other commercially available mammalian GnRH analogs were used in placental receptors binding and enzyme stability study described here. […] GnRH receptors were purified from the membrane fractions from placentas. The purification procedure for the placental GnRH receptor was performed using a modification of the method described by Bramley et al., which reference is specifically incorporated herein by reference for the purpose. Addition of enzyme inhibitors for the endogenous C-ase-1 were used as well as agents for receptor stabilization. Initially, receptor-binding assays using ^125I-Buserelin as label were performed. The competitive binding of each of the analogs was studied over a dose range of 10^−11 to 10^−6 M. Incubation was at room temperature and receptor bound label was precipitated with polyethylene glycol. Specific and non-specific binding was determined. The data was subjected to Scatchard analysis. The non-mammalian GnRH analogs' ability to bind to the placental GnRH receptor was compared to that for synthetic mammalian GnRH (SEQ ID NO: 5), Buserelin (SEQ ID NO: 10) and other mammalian analogs. […] This way, the receptor affinity for that analog could be precisely determined. Receptors from three different term placentas were used to study each of these analogs. […] Bramley T A, McPhie C A, Menzies G S 1994 Human placental gonadotropin-releasing hormone (GnRH) binding sites: 111. […] Placenta 15:733-745.
In these and additional studies, placental GnRH receptors were purified from human term placentas after homogenization in 40 mM Tris (pH 7.4) and filtered through cheesecloth, followed by an initial centrifugation at 1,000×g for 10 minutes. The resulting supernatant was, again, centrifuged at 35,000×g for 30 minutes and the membrane pellet was collected and resuspended in Tris buffer with 0.3 M sucrose. The protein concentration was determined. Membranes were stored frozen at −20 C until use. Before use, placental membranes were diluted to 5,000 μg/mL with Tris buffer containing 0.5% BSA and 50 U/mL bacitracin. […] Following incubation at room temperature for 4 hours, the bound and free hormones were separated using polyethylene glycol precipitation, followed by centrifugation. The binding affinity for each GnRH isoform or analog was calculated using the double reciprocal plot of bound versus free ligand. Each study was done using three different human term placental tissues.
Receptor assays were performed by incubating human term placental GnRH receptors with varying concentrations of GnRH or its analogs in the presence of ^125I-Buserelin. The reaction was stopped and the bound hormone precipitated with polyethylene glycol.

[3] = system: chorionic peptidase-1 (C-ase-1)
[4] = system: early human placental explants; test: Placental explant perifusion, hCG release; type: cell-based; settings: for pattern of hCG response: continuous perifusion
From the text: Placental tissues that are normally discarded were obtained from unidentified patients following first trimester pregnancy termination (early human placental explants). Tissue fragments, dissected of vessels and membranes, were placed in a perfusion system for study of 20 replicate chambers of the same tissue. This allows for simultaneous dose-response studies to be performed. To achieve this specific aim, explants from a given placenta were placed in 20 replicate chambers and perfused with basal medium for three hours at a rate of 6 ml/hr (dead volume of the system at 6 ml/hr is ten minutes). After three hours of equilibration, the analog was added to the basal perfusing medium. Quaduplicate chambers were made for chicken II GnRH analog (SEQ ID NO: 2) at 0, 10^−9, 10^−8, 10^−7, 10^−6 M and Buserelin (SEQ ID NO: 10) at 10^−7 M. The effluent medium of each chamber was collected after a three hour equilibration period. Two basal samples, at half hour intervals were collected, media with test substances was initiated and effluent medium collection continued for four and one half hours at thirty minute intervals. The hCG release was analyzed in each of these experiments. FIGS. 16 and 17 illustrate a typical response. […] Maximal response was observed within minutes after initiation of perfusion at 10^−8 M, with possible down regulation beginning after five hours at 10^−6 M as illustrated in FIG. 18.
In additional experiments, early gestation human placentas were perfused for six hours with medium supplemented with estradiol, progesterone, bovine serum albumin, and antibiotics (basal medium). Twenty replicate chambers were perifused with basal medium for two hours, then triplicate chambers were perifused with the medium containing either Buserelin (SEQ ID NO: 10), or 10^−9, 10^−8, 10^−7, 10^−6 M of a chicken II GnRH analog (SEQ ID NO: 2), leaving five control chambers. The eluted medium was collected at thirty minute intervals, starting one hour prior to the addition of GnRH analogs and throughout five hours of treatment. hCG released into the effluent media, as well as the production of GnRH, were measured using sensitive and specific radioimmunoassays. The release of hCG at each time point was normalized to its zero treatment release and the release throughout the treatment period and its average release was compared for various treatment regimens. These studies were repeated using tissues from three different first trimester placentas. The results of this experiment are illustrated in FIG. 20.

[5] = molecular target: baboon endometrium (stroma and epithelium) receptor; test: Baboon endometrium receptor binding; settings: read-out: receptor affinity
From the text: Due to the limited number of cells it was not possible to precisely define the affinity of this receptor.

[6] = molecular target: baboon ovary GnRH receptor; test: Baboon ovary membrane GnRH receptor binding; settings: baboon ovary membranes; read-out: GnRH receptor affinity
Method: The receptor binding activity of newly synthesized non-mammalian GnRH analogs was studied in ovarian and uterine tissues. […] The ovaries of the three baboons were extracted and the cytosolic and membrane fractions were recovered for the tissues. The membrane fraction from one animal was titred for GnRH receptor binding activity using D-Arg(6)-chicken II GnRH-aza-Gly(10)-amide radiolabeled ligand. Receptors were clearly demonstrable even at 4 μg membrane protein/tube. […] The chicken II GnRH analog (SEQ ID NO: 2) had the highest affinity for any GnRH analog reported to date.

[7] = system: baboon ovarian enzymatic activity
Method: In these studies the enzyme was in the ovarian extract.
In this assay, following incubation of the enzyme and GnRH, with and without the chosen analog, the reaction was stopped by heating and the remaining GnRH substrate was quantified by radioimmunoassay. The product formed is calculated by subtraction, and its inverse plotted against the inverse of the original substrate concentrations to determine the nature of the competition. The Ki was determined by plotting the inverse of the product formed versus the inhibitor used.

receptor binding potency compared with chicken II GnRH isoform or Buserelin ([2]; Example II): 2 fold
receptor binding potency compared with mammalian GnRH ([2]; Example II): 60 fold
Kd ([2]; term placental membranes, read-out: dissociation constant (Kd)): 175 ± 59 nM
degradation by / competition for C-ase-1, in words [3]: essentially not degraded
Kd [5]: ~60 nM
Kd [6]: 10 nM
stability compared with mammalian GnRH [7]: more than 50 times
Ki ([7]; competition with degradation of mammalian GnRH): ≥ 1500 nM
Compound: N=C(N)NCCC[C@@H](NC(=O)[C@H](Cc1c[nH]cn1)NC(=O)[C@H](CO)NC(=O)[C@H](Cc1c[nH]c2ccccc12)NC(=O)[C@H](Cc1c[nH]cn1)NC(=O)[C@@H]1CCC(=O)N1)C(=O)N[C@@H](Cc1c[nH]c2ccccc12)C(=O)N[C@@H](Cc1ccc(O)cc1)C(=O)N1CCC[C@H]1C(=O)NNC(N)=O [D-Arg(6)-chicken II GnRH-aza-Gly(10)-amide] ([pGlu]HWSH[dR]WYP[azaGly]-NH2)
pregnancies ([1]; treated Day 1-6): no pregnancies resulted
effect on progesterone production or cycle length ([1]; treated day 1-6): no significant effect
animals implanted with normal pregnancies ([1]; treated day 6-11, two of five): 40.0%
effect on luteinization or cycle length ([1]; treated day 6-11 or days 11-17): no effect
animals implanted with normal pregnancies ([1]; treated days 11-17, one of three): 33.3%
concentration giving maximal hCG response ([4]; 10^−9 to 10^−6 M tested): 10^−8 M
pattern of hCG response ([4]; listed as Chicken II GnRH analog): dose related biphasic response
pattern of hCG response ([4]; listed as chicken II GnRH analog): biphasic stimulation of hCG
